From patent US9441012B2, “Fluorinated epoxyketone-based compounds and uses thereof as proteasome inhibitors” (FLUORINOV PHARMA INC., priority 2012, dated 2016)

How the values were obtained:
Assay in all cases: NCI 60 human tumor cell line screen (SRB)
Format in all cases: cell-based
[1] = test system: TK-10; details: TK-10 (Renal Cancer); 48 h
From the text: (§1) Representative compounds of Formula I were screened using the National Cancer Institute (NCI) screening panel, which consists of a panel of 60 different human tumor cell lines, representing leukemia [CCRF-CEM, HL-60 (TB), K-562, MOLT-4, SR], melanoma [LOX IMVI, MALME-3M, M14, SMDA-MB-435, SK-MEL-2, SK-MEL-28, SK-MEL-5, UACC-257 and UACC-62] and cancers of the lung [A549/ATCC, EKVX, HOP-62, HOP-93, NCI-H226, NCI-H23, NCI-H322M, NCI-H460], colon [COLO 205, HCT-116, HCT-15, HT29, KM12, SW-620], brain [SF-268, SF-295, SF-539, SNB-19, SNB-75, U251], ovary [IGROV1, OVCAR-3, OVCAR-4, OVCAR-5, OVCAR-8, NCI/ADR-RES, SK-OV-3], breast [MCF7, MDA-MB-231, BT-549, T-47D, MDA-MB-468], prostate [PC-3, DU-145], and renal[786-0, A498, ACHN, CAKI-1, RXF-393, SN12C, TK-10, UO-31] cancers.
(§2) After 24 h, two plates of each cell line are fixed in situ with TCA, to represent a measurement of the cell population for each cell line at the time of drug addition (Tz). Experimental drugs are solubilised in dimethyl sulfoxide at 400-fold the desired final maximum test concentration and stored frozen prior to use. At the time of drug addition, an aliquot of frozen concentrate is thawed and diluted to twice the desired final maximum test concentration with complete medium containing 50 μg/ml gentamicin. Additional four, 10-fold or ½ log serial dilutions are made to provide a total of five drug concentrations plus control. Aliquots of 100 μl of these different drug dilutions are added to the appropriate microtiter wells already containing 100 μl of medium, resulting in the required final drug concentrations.
(§3) Following drug addition, the plates are incubated for an additional 48 h at 37° C., 5% CO2, 95% air, and 100% relative humidity. For adherent cells, the assay is terminated by the addition of cold TCA (trichloroacetic acid). Cells are fixed in situ by the gentle addition of 50 μl of cold 50% (w/v) TCA (final concentration, 10% TCA) and incubated for 60 minutes at 4° C. The supernatant is discarded, and the plates are washed five times with tap water and air dried. Sulforhodamine B (SRB) solution (100 μl) at 0.4% (w/v) in 1% acetic acid is added to each well, and plates are incubated for 10 minutes at room temperature. After staining, unbound dye is removed by washing five times with 1% acetic acid and the plates are air dried. Bound stain is subsequently solubilised with 10 mM trizma base, and the absorbance is read on an automated plate reader at a wavelength of 515 nm. For suspension cells, the methodology is the same except that the assay is terminated by fixing settled cells at the bottom of the wells by gently adding 50 μl of 80% TCA (final concentration, 16% TCA). Using the seven absorbance measurements [time zero, (Tz), control growth, (C), and test growth in the presence of drug at the five concentration levels (Ti)], the percentage growth is calculated at each of the drug concentration levels. Percentage growth inhibition is calculated as: [(Ti−Tz)/(C−Tz)]×100 for concentrations in which Ti>/=Tz and [(Ti−Tz)/Tz]×100 for concentrations in which Ti<Tz.
(§4) Three dose response parameters are calculated for each experimental agent. Growth inhibition of 50% (GI50) is calculated from [(Ti−Tz)/(C−Tz)]100=50, which is the drug concentration resulting in a 50% reduction in the net protein increase (as measured by SRB staining) in control cells during the drug incubation. The drug concentration resulting in total growth inhibition (TGI) is calculated from Ti=Tz. The LC50 (concentration of drug resulting in a 50% reduction in the measured protein at the end of the drug treatment as compared to that at the beginning) indicating a net loss of cells following treatment is calculated from [(Ti−Tz)/Tz]×100=−50. Values are calculated for each of these three parameters if the level of activity is reached. However, if the effect is not reached or is exceeded, the value for that parameter is expressed as greater or less than the maximum or minimum concentration tested.

[2] = test system: NCI-H322M; details: NCI-H322M (Non-Small Cell Lung Cancer); 48 h
From the text: as §1, §2, §3, §4

[3] = test system: K-562; details: K-562 (Leukemia); 48 h
From the text: as §1, §2, §3, §4

[4] = test system: MCF7; details: MCF7 (Breast Cancer); 48 h
From the text: as §1, §2, §3, §4

[5] = test system: 786-0; details: 786-0 (Renal Cancer); 48 h
From the text: as §1, §2, §3, §4

[6] = test system: HS 578T; details: HS 578T (Breast Cancer); 48 h
From the text: as §1, §2, §3, §4

[7] = test system: SF-268; details: SF-268 (CNS Cancer); 48 h
From the text: as §1, §2, §3, §4

[8] = test system: U251; details: U251 (CNS Cancer); 48 h
From the text: as §1, §2, §3, §4

[9] = test system: A498; details: A498 (Renal Cancer); 48 h
From the text: as §1, §2, §3, §4

[10] = test system: SW-620; details: SW-620 (Colon Cancer); 48 h
From the text: as §1, §2, §3, §4

[11] = test system: OVCAR-8; details: OVCAR-8 (Ovarian Cancer); 48 h
From the text: as §1, §2, §3, §4

[12] = test system: MDA-MB-435; details: MDA-MB-435 (Melanoma); 48 h
From the text: as §1, §2, §3, §4

| Compound | Log10GI50 [1] | Log10TGI50 [1] | Log10GI50 [2] | Log10LC50 [2] | Log10TGI50 [2] | Log10GI50 [3] | Log10LC50 [3] | Log10TGI50 [3] | Log10GI50 [4] | Log10LC50 [4] | Log10TGI50 [4] | Log10GI50 [5] | Log10LC50 [5] | Log10TGI50 [5] | Log10GI50 [6] | Log10LC50 [6] | Log10TGI50 [6] | Log10GI50 [7] | Log10LC50 [7] | Log10TGI50 [7] | other results |
| --- | --- | --- | --- | --- | --- | --- | --- | --- | --- | --- | --- | --- | --- | --- | --- | --- | --- | --- | --- | --- | --- |
| CC(C)C[C@H](NC(=O)[C@H](Cc1ccccc1)NC(=O)[C@H](COC(F)F)NC(=O)CN1CCOCC1)C(=O)[C@@]1(C)CO1 [Example 25, (2S)-2-[[(2S)-3-(difluoromethoxy)-2-[(2-morpholinoacetyl)amino]propanoyl]amino]-N-[(1S)-3-methyl-1-[(2R)-2-methyloxirane-2-carbonyl]butyl]-3-phenyl-propanamide] | −7.49 | −6.07 | −7.10 | >−4.00 | −6.33 | −7.41 | >−4.00 | >−4.00 | −7.53 | >−4.00 | −4.89 | −7.20 | −5.44 | −6.49 | −7.54 | >−4.00 | −6.24 | −7.60 | >−4.00 | −7.14 | Log10LC50 [1]: >−4.00; Log10GI50 [8]: −7.44; Log10LC50 [8]: >−4.00; Log10TGI50 [8]: −6.75; Log10GI50 [9]: −7.61; Log10LC50 [9]: −6.34; Log10TGI50 [9]: −7.03; Log10GI50 [10]: −7.41; Log10LC50 [10]: >−4.00; Log10TGI50 [10]: −5.93; Log10GI50 [11]: −7.32; Log10LC50 [11]: >−4.00; Log10TGI50 [11]: −6.41; Log10GI50 [12]: −7.75; Log10LC50 [12]: −7.10; Log10TGI50 [12]: −7.42 |
| Cc1ncc(C(=O)N[C@@H](COC(F)F)C(=O)N[C@@H](COC(F)F)C(=O)N[C@@H](Cc2ccccc2)C(=O)[C@@]2(C)CO2)s1 [Example 1, 2-methyl-thiazole-5-carboxylic acid ((S)-1-{(S)-1-[(S)-1-benzyl-2-((R)-2-methyloxiranyl)-2-oxo-ethylcarbamoyl]-2-difluoromethoxyethylcarbamoyl}-2-difluoromethoxyethyl)-amide] | −6.71 | −6.06 | −5.54 | −4.23 | −4.74 | −6.50 | >−4.00 | >−4.00 | −7.35 | >−4.00 | −4.62 | −6.43 | >−4.00 | −4.62 | −7.33 | >−4.00 | −5.44 | −6.98 | >−4.00 | −5.90 | Log10GI50 [8]: −6.55; Log10LC50 [8]: >−4.00; Log10TGI50 [8]: −4.94; Log10GI50 [9]: −8.00; Log10LC50 [9]: −4.88; Log10TGI50 [9]: −6.38; Log10GI50 [10]: −7.39; Log10LC50 [10]: −4.40; Log10TGI50 [10]: −5.95; Log10GI50 [11]: −5.80; Log10LC50 [11]: >−4.00; Log10TGI50 [11]: >−4.00; Log10GI50 [12]: −7.43; Log10LC50 [12]: >−4.00; Log10TGI50 [12]: −6.74 |
| C[C@]1(C(=O)[C@H](Cc2ccccc2)NC(=O)[C@H](COC(F)F)NC(=O)[C@H](COC(F)F)NC(=O)CN2CCOCC2)CO1 [Example 26, (S)-N-{(S)-1-[(S)-1-Benzyl-2-((R)-2-methyl-oxiranyl)-2-oxo-ethylcarbamoyl]-2-difluoromethoxyethyl}-3-difluoromethoxy-2-(2-morpholin-4-yl-acetylamino)-propio-namide] | −7.49 | −6.07 | −7.10 | >−4.00 | −6.33 | −7.41 | >−4.00 | >−4.00 | −7.53 | >−4.00 | −4.89 | −7.20 | −5.44 | −6.49 | −7.54 | >−4.00 | −6.24 | −7.60 | >−4.00 | −7.14 | Log10LC50 [1]: >−4.00; Log10GI50 [8]: −7.44; Log10LC50 [8]: >−4.00; Log10TGI50 [8]: −6.75; Log10GI50 [9]: −7.61; Log10LC50 [9]: −6.34; Log10TGI50 [9]: −7.03; Log10GI50 [10]: −7.41; Log10LC50 [10]: >−4.00; Log10TGI50 [10]: −5.93; Log10GI50 [11]: −7.32; Log10LC50 [11]: >−4.00; Log10TGI50 [11]: −6.41; Log10GI50 [12]: −7.75; Log10LC50 [12]: −7.10; Log10TGI50 [12]: −7.42 |
| C[C@]1(C(=O)[C@H](Cc2ccccc2)NC(=O)[C@H](Cc2ccccc2)NC(=O)[C@H](COC(F)F)NC(=O)CN2CCOCC2)CO1 [Example 29] | −6.55 | −5.10 | −6.27 | −4.18 | −5.52 | −7.00 | >−4.00 | >−4.00 | −7.38 | >−4.00 | >−4.00 | −6.55 | −4.87 | −5.96 | −7.07 | >−4.00 | >−4.00 | −7.27 | >−4.00 | −6.50 | Log10LC50 [1]: >−4.00; Log10GI50 [8]: −6.98; Log10LC50 [8]: >−4.00; Log10TGI50 [8]: −5.70; Log10GI50 [9]: −6.68; Log10LC50 [9]: −5.47; Log10TGI50 [9]: −6.11; Log10GI50 [10]: −7.40; Log10LC50 [10]: >−4.00; Log10TGI50 [10]: −4.92; Log10GI50 [11]: −6.59; Log10LC50 [11]: >−4.00; Log10TGI50 [11]: >−4.00; Log10GI50 [12]: −7.63; Log10TGI50 [12]: −7.17 |
